The subject of one assay is peptide-pulsed C1R-A01. Briefly: In vitro CTL induction, IFN-gamma ELISPOT assay (HLA-A*0101). The format is cell-based, human. The settings on record: CTLs induced with peptide-pulsed DCs from HLA-A*0101-positive volunteers, day 21, vs peptide-pulsed C1R-A01, compared with unpulsed control. On the procedure:
C1R (C1R-A01) that stably expresses HLA-A*0101 was used as a stimulator cell. A cDNA encoding the open-reading frame of HLA-A*0101 was amplified by PCR and cloned into an expression vector. C1R cells were transfected with the expression vector, and then selected using G418 (Invitrogen) for two weeks. The G418-selected cells were seeded into wells containing G418-added culture medium in a 96-well plate, and further cultured for 30 days. The exogenous HLA-A*0101 expression in C1R cells was verified by flow cytometric analysis.
(§1) Monocyte-derived dendritic cells (DCs) were used as the antigen-presenting cell to induce a cytotoxic T lymphocyte (CTL) response against peptides presented on human leukocyte antigens (HLAs). As described in the other sections, DCs were generated in vitro (Nakahara S et al., Cancer Res 2003, 63(14): 4112-8). Specifically, peripheral-blood mononuclear cells isolated from healthy volunteers (HLA-A*0101-positive) with the Ficoll-Paque plus solution (Pharmacia) were separated by attaching to plastic tissue culture dishes (Becton Dickinson) and concentrated as a monocyte fraction. The monocyte-concentrated population was cultured in the presence of 1000 IU/ml granulocyte macrophage colony-stimulating factor (R&D System) and 1000 IU/ml interleukin(IL)-4 (R&D System) in an AIM-V medium (Invitrogen) containing 2% heat-inactivated autologous serum (AS). After seven days of culturing, the cytokine-induced DCs were pulsed with 20 micro-g/ml each of the synthesized peptides in an AIM-V medium at 37 degrees C. for three hours in the presence of 3 micro-g/ml beta 2-microglobulin. Next, these peptide-pulsed DCs were inactivated by X-ray irradiation (20 Gy), and mixed in a 1:20 ratio with autologous CD8^+ T cells obtained by positive selection using the CD8 Positive Isolation Kit (Dynal). These culture products were seeded in a 48-well plate (Corning). Each well was made to contain 1.5×10^4 peptide-pulsed DCs, 3×10^5 CD8^+ T cells and 10 ng/ml IL-7 (R&D System) in 0.5 ml of the AIM-V/2% AS medium. Three days later, these culture products were added with a final concentration of 20 IU/ml IL-2 (CHIRON). On day 7 and day 14, T cells were further stimulated with peptide-pulsed autologous DCs. The DCs were prepared every time by the same method as above. On day 21, after the third peptide stimulation, CTL activities were examined against the peptide-pulsed C1R-A01 cells (Tanaka H et al., Br J Cancer 2001, 84(1): 94-9; Umano Y et al., Br J Cancer 2001, 84(8): 1052-7; Uchida N et al., Clin Cancer Res 2004, 10(24): 8577-86; Suda T et al., Cancer Sci 2006, 97(5): 411-9; Watanabe T et al., Cancer Sci 2005, 96(8): 498-506).
Specifically, peptide-pulsed C1R-A01 (1×10^4 cells/well) was prepared as the stimulator cell. The induced CTLs, i.e., CTL lines and CTL clones, were used as the responder cell. The IFN-gamma ELISPOT assay and IFN-gamma ELISA were performed according to the manufacturer's manual.

Assay [1] concerns COS7 cells transfected with both KOC1 and HLA-A*3303. Briefly: Specific CTL activity against target cells expressing KOC1 and HLA-A*3303. In kind it is cell-based, African green monkey. The settings on record: for specific CTL activity of CTL clones against target cells expressing KOC1 and HLA-A*3303: COS7 transfected with both full-length KOC1 and HLA-A*3303; for specific CTL activity of CTL clones against control cells: COS7 transfected with either full-length KOC1 or HLA-A*3303. On the procedure:
(§2) Specifically, peptide-pulsed C1R-A33 (1×10^4 cells/well) was prepared as the stimulator cell. The induced CTLs, i.e., CTL lines and CTL clones, were used as the responder cell. The IFN-gamma ELISPOT assay and IFN-gamma ELISA were performed according to the manufacturer's manual.
A cDNA encoding the open-reading frame of a target gene or HLA-A*3303 was amplified by PCR. The PCR-amplified product was cloned into an expression vector. Either or both of the target gene-expressing vector and the HLA-A*3303-expressing vector were transfected into […], which is a cell line negative for the target gene and HLA, using Lipofectamine 2000 (Invitrogen) following the manufacturer's recommended protocol. Two days after transfection, the transfected cells were harvested using versene (Invitrogen), and used as the target cell for CTL activity assay (5×10^4 cells/well).
The CTL lines and CTL clones established against KOC1-A33-9-485 (SEQ ID NO: 64) (a), KOC1-A33-9-286 (SEQ ID NO: 67) (b), and KOC1-A33-10-542 (SEQ ID NO: 77) (c) were investigated for their ability to recognize target cells expressing KOC1 and the HLA-A*3303 molecule. COS7 cells transfected with both full-length KOC1 and the HLA-A*3303 gene (a specific model of target cells expressing KOC1 and the HLA-A*3303 gene) were prepared as the target cell. COS7 cells transfected with either full-length KOC1 or HLA-A*3303 were prepared as the control.

Assay [2] deals with peptide-pulsed C1R-A33. As to the kind of experiment: IFN-gamma ELISA of CTL lines and CTL clones (HLA-A*3303). In kind it is cell-based, human. The settings on record: for IFN-gamma production of CTL clones, ELISA: CTL clones by limiting dilution, peptide-pulsed C1R-A33; for IFN-gamma production of CTL lines, ELISA: target cells pulsed with the peptide vs not pulsed, C1R-A33. On the procedure:
CTLs were propagated in culture using methods similar to those disclosed by Riddell et al. (Walter E A et al., N Engl J Med 1995, 333(16): 1038-44; Riddell S R et al., Nat Med 1996, 2(2): 216-23). The CTLs were co-cultured in a total of 25 ml AIM-V medium containing 5% AS (AIM-V/5% AS) and 40 ng/ml anti-CD3 antibody with two types of Mitomycin C-treated human B lymphoblastoid cell lines at 5×10^6 cells/flask. One day after beginning of the culturing, 120 IU/ml IL-2 was added to the culture. On days 5, 8 and 11, a fresh AIM-V/5% AS medium containing 30 IU/ml IL-2 was added to the culture (Tanaka H et al., Br J Cancer 2001, 84(1): 94-9; Umano Y et al., Br J Cancer 2001, 84(8): 1052-7; Uchida N et al., Clin Cancer Res 2004, 10(24): 8577-86; Suda T et al., Cancer Sci 2006, 97(5): 411-9; Watanabe T et al., Cancer Sci 2005, 96(8): 498-506).
Dilution of CTLs was carried out to make 0.3, 1 and 3 cells/well in 96 round-bottomed microtiter plates (Nalge Nunc International). The CTLs were co-cultured with two types of Mitomycin C-treated human B lymphoblastoid cell lines at 1×10^4 cells/well in a total of 150 micro-1/well AIM-V/5% AS medium with 30 ng/ml anti-CD3 antibody and 125 IU/ml IL-2. Ten days later, IL-2 was added to the medium at 50 micro-1/well to reach a final concentration of 125 IU/ml. On day 14, the CTL activity was tested, and the CTL clones were propagated using the same method as described above (Uchida N et al., Clin Cancer Res 2004, 10(24): 8577-86; Suda T et al., Cancer Sci 2006, 97(5): 411-9; Watanabe T et al., Cancer Sci 2005, 96(8): 498-506).
as §2
(In general: ELISA stands for enzyme-linked immunosorbent assay.)

The test system of assay [3] is peptide-pulsed C1R-A33. As to the kind of experiment: In vitro CTL induction, IFN-gamma ELISPOT assay (HLA-A*3303). The format is cell-based, human. The settings on record: CTLs induced with peptide-pulsed DCs from HLA-A*3303-positive volunteers; day 21; vs peptide-pulsed C1R-A33, compared with unpulsed control. As to the method:
C1R (C1R-A33) that stably expresses HLA-A*3303 was used as a stimulator cell. A cDNA encoding the open-reading frame of HLA-A*3303 was amplified by PCR and cloned into an expression vector. C1R cells were transfected with the expression vector, and then selected using G418 (Invitrogen) for two weeks. The G418-selected cells were seeded into wells containing G418-added culture medium in a 96-well plate, and further cultured for 30 days. The exogenous HLA-A*3303 expression in C1R cells was verified by flow cytometric analysis.
as §1, with “volunteers (HLA-A*3303-positive)” for “volunteers (HLA-A*0101-positive)”, “2-microglobulin. The generated cells appeared to express on their cell surface DC-associated molecules such as CD80, CD83, CD86 and HLA class II (data not shown).” for “2-microglobulin.”, “stimulation, CTLs” for “stimulation, CTL activities”, “peptide-pulsed C1R-A33 cell by a human interferon (IFN)-gamma enzyme-linked immunospot (ELISPOT) assay” for “peptide-pulsed C1R-A01 cells”, “Y et.” for “Y et”
as §2

“Also recorded” adds a separate entry of the source.

As for “ETETVHLFI (a peptide derived from KOC1) [SEQ ID NO: 90]”, the “peptide-specific CTL activity (IFN-gamma production), ELISPOT” value (“peptide-specific CTL activity” for short) with peptide-pulsed C1R-A01 is “potent IFN-gamma production”.
With “EVKLEAHIR (a peptide derived from KOC1) [SEQ ID NO: 64]”, in assay [1] (listed as KOC1-A33-9-485), the “specific CTL activity of CTL clones against target cells expressing KOC1 and HLA-A*3303” value was “specific CTL activity; also recorded: potent CTL activities”; the “specific CTL activity of CTL clones against control cells” value is “a significant specific CTL activity was not shown; also recorded: a significant specific CTL activity was not detected”. Further, in the assay on peptide-pulsed C1R-A33 [2] (listed as KOC1-A33-9-485), the “IFN-gamma production of CTL clones, ELISA” value is “Potent IFN-gamma production”. Moreover, the “IFN-gamma production of CTL lines, ELISA” value in the assay with peptide-pulsed C1R-A33 [2] is “potent IFN-gamma production”. For the same sequence, in the assay with peptide-pulsed C1R-A33 [3], the “peptide-specific CTL activity” value was “potent IFN-gamma production”.
For “HFYACQVAQR (a peptide derived from KOC1) [SEQ ID NO: 77]”, in assay [1] (listed as KOC1-A33-10-542), the “specific CTL activity of CTL clones against target cells expressing KOC1 and HLA-A*3303” value is “specific CTL activity; also recorded: potent CTL activities”; the “specific CTL activity of CTL clones against control cells” value is “a significant specific CTL activity was not shown; also recorded: a significant specific CTL activity was not detected”. Moreover, the “IFN-gamma production of CTL clones, ELISA” value in the assay with peptide-pulsed C1R-A33 [2] (listed as KOC1-A33-10-542) is “Potent IFN-gamma production”. Further, in the assay with peptide-pulsed C1R-A33 [2], the “IFN-gamma production of CTL lines, ELISA” value is recorded as “potent IFN-gamma production”. Besides, in the assay with peptide-pulsed C1R-A33 [3], the “peptide-specific CTL activity” value is reported as “potent IFN-gamma production”.
With “ISPLQELTLY (a peptide derived from KOC1) [SEQ ID NO: 46]”, the “peptide-specific CTL activity” value in the assay with peptide-pulsed C1R-A01 was “potent IFN-gamma production”.
On the same count and under the same terms, as for “QSETETVHL (a peptide derived from KOC1) [SEQ ID NO: 92]”, the entry is “potent IFN-gamma production”; as for “QSETETVHLF (a peptide derived from KOC1) [SEQ ID NO: 95]”, “potent IFN-gamma production”.
“VVKITGHFY (a peptide derived from KOC1) [SEQ ID NO: 13]”: the “peptide-specific CTL activity” value in the assay on peptide-pulsed C1R-A01 (listed as KOC1-A01-9-536) is “no specific IFN-gamma production; also recorded: specific IFN-gamma production was not observed”.
As to “VVVKITGHFY (a peptide derived from KOC1) [SEQ ID NO: 41]”, in the assay with peptide-pulsed C1R-A01, the “peptide-specific CTL activity” value is “potent IFN-gamma production”.

(Values after patent US10576102B2, “KOC1-derived peptide and vaccine including same” (ONCOTHERAPY SCIENCE, INC., priority 2014, dated 2020).)
